These results are taken from patent publication US12528801B2 (Givaudan SA, priority 2019, dated 2026).

The term EC50 denotes the concentration at which the effect is half-maximal.

The target of the test is T1, hTRPM8 (Homo sapiens, UniProt Q7Z2W7).
T1 construct: expressed in transfected cells
T1 sequence (Q7Z2W7 whole entry): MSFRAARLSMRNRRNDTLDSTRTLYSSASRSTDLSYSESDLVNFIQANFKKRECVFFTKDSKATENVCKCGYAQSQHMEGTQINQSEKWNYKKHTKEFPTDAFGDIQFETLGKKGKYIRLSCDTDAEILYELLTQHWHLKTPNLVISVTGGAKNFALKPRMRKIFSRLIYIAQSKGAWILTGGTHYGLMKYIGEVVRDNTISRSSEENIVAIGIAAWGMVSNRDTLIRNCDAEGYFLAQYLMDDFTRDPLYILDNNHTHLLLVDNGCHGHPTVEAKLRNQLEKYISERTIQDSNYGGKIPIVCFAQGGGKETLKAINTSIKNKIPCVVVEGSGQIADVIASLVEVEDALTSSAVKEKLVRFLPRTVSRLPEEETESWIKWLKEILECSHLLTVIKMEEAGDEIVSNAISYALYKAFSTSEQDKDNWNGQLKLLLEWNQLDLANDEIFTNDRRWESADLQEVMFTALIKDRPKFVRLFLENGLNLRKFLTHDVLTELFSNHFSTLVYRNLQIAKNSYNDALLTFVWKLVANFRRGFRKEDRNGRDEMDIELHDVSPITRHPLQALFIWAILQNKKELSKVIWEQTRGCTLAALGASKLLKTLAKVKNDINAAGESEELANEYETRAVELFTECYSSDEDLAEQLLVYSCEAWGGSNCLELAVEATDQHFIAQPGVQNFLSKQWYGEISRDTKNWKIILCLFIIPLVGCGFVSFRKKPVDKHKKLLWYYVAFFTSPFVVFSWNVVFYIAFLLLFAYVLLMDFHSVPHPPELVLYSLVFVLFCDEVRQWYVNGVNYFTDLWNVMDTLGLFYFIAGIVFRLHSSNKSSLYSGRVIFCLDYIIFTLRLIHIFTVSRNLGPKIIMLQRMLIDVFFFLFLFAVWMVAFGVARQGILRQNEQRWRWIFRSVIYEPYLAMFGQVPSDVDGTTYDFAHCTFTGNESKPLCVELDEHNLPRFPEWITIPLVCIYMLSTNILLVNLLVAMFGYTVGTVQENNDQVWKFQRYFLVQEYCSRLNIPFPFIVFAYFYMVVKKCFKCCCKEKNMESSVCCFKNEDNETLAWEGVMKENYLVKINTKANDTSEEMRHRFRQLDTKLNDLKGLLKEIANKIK
The experiment in a line: Assay on TRPM8 modulators: calcium imaging (Fluo-4, Flexstation) in HEK293 cell line stably expressing hTRPM8. To be noted: HEK293 cells stably expressing hTRPM8; calcium influx, Fluo-4, Flexstation 3; sigmoidal dose-response fit. Format: cell-based. On the procedure:
A HEK293 cell line stably expressing hTRPM8 was generated according to Klein of at, (Chem. Senses 36: […], 2011) and receptor activation was monitored by calcium imaging in a Flexstation. For Ca-imaging assays of TRPM8 channel activation, cells were seeded on day 0 at a density of 12000 cells per well in Dulbecco's modified Eagle medium (DMEM) containing 9% foetal bovine serum in black, clear bottom 96-well plates that had been coated with 0.001% polyethyleneimine (molecular weight=60 000, Acros Organics). On day 2, agonists were evaluated via calcium imaging using Fluo-4. Briefly, growth medium was discarded, and the cells were incubated in the dark for 1 h at 37° C. in 50 μL loading buffer consisting of 2.7 μM Fluo-4 AM (Invitrogen) and […] probenecid (Sigma-Aldrich) in DMEM (without serum). After incubation, the plates were washed five times with 100 μL of assay buffer (in mM: 130 NaCl, 5 KCl, 10 HEPES, 2 CaCl2, and 10 glucose, pH7.4.) and further incubated in the dark at room temperature for 30 min. The cells were then washed five times with 100 μL assay buffer and then calcium influx to serial dilutions of inventive compounds were measured in a Flexstation 3 (Molecular Devices). Receptor activation was initiated following addition of 20 μl of a 10-fold concentrated ligand stock solution, which is also prepared in assay buffer. Fluorescence was continuously monitored for 15 seconds prior to ligand addition and for 105 seconds after ligand addition, for a total of 120 seconds. Maximal receptor activation in relation to solvent control and relative to 31.6 μM menthol is determined. Data from serial dilutions were processed with a KNIME workflow to fit a sigmoidal dose-response curve and to extrapolate […].
Turning to `COCc1ccc(-c2cnc(C3CCCCN3C(=O)C(C)SC)[nH]2)cc1F` (stereo not drawn) [Compound 64, 1-(2-(5-(3-fluoro-4-(methoxymethyl)phenyl)-1H-imidazol-2-yl)piperidin-1-yl)-2-(methylthio)propan-1-one], the half-maximal effective concentration (EC50) lay within 50 to 300 nM.
The value for `CSC(C)C(=O)N1CCCCC1c1ncc(-c2ccc(C)c(F)c2)[nH]1` (stereo not drawn) [Compound 65, 1-(2-(5-(3-fluoro-4-methylphenyl)-1H-imidazol-2-yl)piperidin-1-yl)-2-(methylthio)propan-1-one] was < 50 nM; that for `CSC(C)C(=O)N1CCCCC1c1ncc(-c2cccc(F)c2)[nH]1` (stereo not drawn) [Compound 66, 1-(2-(5-(3-fluorophenyl)-1H-imidazol-2-yl)piperidin-1-yl)-2-(methylthio)propan-1-one] was < 50 nM; that for `COc1nscc1-c1cnc(C2CCCCN2C(=O)C(C)SC)[nH]1` (stereo not drawn) [Compound 67, 1-(2-(5-(3-methoxyisothiazol-4-yl)-1H-imidazol-2-yl)piperidin-1-yl)-2-(methylthio)propan-1-one] was 1000 to 35000 nM.
Take `COc1cccc(-c2cnc(C3CCCCN3C(=O)C(C)SC)[nH]2)c1` (stereo not drawn) [Compound 68, 1-(2-(5-(3-methoxyphenyl)-1H-imidazol-2-yl)piperidin-1-yl)-2-(methylthio)propan-1-one]: the EC50 fell in the range of 50 to 300 nM.
Regarding `CNCc1ccc(-c2cnc(C3CCCCN3C(=O)C(C)SC)[nH]2)cc1` (stereo not drawn) [Compound 69, 1-(2-(5-(4-((methylamino)methyl)phenyl)-1H-imidazol-2-yl)piperidin-1-yl)-2-(methylthio)propan-1-one], the 50% effective concentration (EC50) lay within 1000 to 35000 nM.
Take `COCCc1ccc(-c2cnc(C3CCCCN3C(=O)C(C)SC)[nH]2)cc1` (stereo not drawn) [Compound 70, 1-(2-(5-(4-(2-methoxyethyl)phenyl)-1H-imidazol-2-yl)piperidin-1-yl)-2-(methylthio)propan-1-one]: the EC50 lay in the range of 50 to 300 nM.
The value for `CSC(C)C(=O)N1CCCCC1c1ncc(-c2ccc(CN)cc2)[nH]1` (stereo not drawn) [Compound 71, 1-(2-(5-(4-(aminomethyl)phenyl)-1H-imidazol-2-yl)piperidin-1-yl)-2-(methylthio)propan-1-one] was < 50 nM.
For the compound `CSC(C)C(=O)N1CCCCC1c1ncc(-c2ccc(N(C)C)cc2)[nH]1` (stereo not drawn) [Compound 72, 1-(2-(5-(4-(dimethylamino)phenyl)-1H-imidazol-2-yl)piperidin-1-yl)-2-(methylthio)propan-1-one], the concentration for a half-maximal effect (EC50) lay in the range of 50 to 300 nM.
The value for `CSC(C)C(=O)N1CCCCC1c1ncc(-c2ccc(CO)cc2)[nH]1` (stereo not drawn) [Compound 73, 1-(2-(5-(4-(hydroxymethyl)phenyl)-1H-imidazol-2-yl)piperidin-1-yl)-2-(methylthio)propan-1-one] was 300 to 1000 nM; that for `CSC(C)C(=O)N1CCCCC1c1ncc(-c2ccc(C(C)=O)cc2)[nH]1` (stereo not drawn) [Compound 74, 1-(2-(5-(4-acetylphenyl)-1H-imidazol-2-yl)piperidin-1-yl)-2-(methylthio)propan--one] was < 50 nM; that for `CSC(C)C(=O)N1CCCCC1c1ncc(-c2ccc(N)cc2)[nH]1` (stereo not drawn) [Compound 75, 1-(2-(5-(4-aminophenyl)-1H-imidazol-2-yl)piperidin-1-yl)-2-(methylthio)propan-1-one] was < 50 nM.
The value for `CSC(C)C(=O)N1CCCCC1c1ncc(-c2ccc(Cl)c(F)c2)[nH]1` (stereo not drawn) [Compound 76, 1-(2-(5-(4-chloro-3-fluorophenyl)-1H-imidazol-2-yl)piperidin-1-yl)-2-(methylthio)propan-1-one] was < 50 nM.
The value for `CSC(C)C(=O)N1CCCCC1c1ncc(-c2ccc(Cl)cc2)[nH]1` (stereo not drawn) [Compound 77, 1-(2-(5-(4-chlorophenyl)-1H-imidazol-2-yl)piperidin-1-yl)-2-(methyltbio)propan-1-one] was < 50 nM.
Take `CCc1ccc(-c2cnc(C3CCCCN3C(=O)C(C)SC)[nH]2)cc1` (stereo not drawn) [Compound 78, 1-(2-(5-(4-ethylphenyl)-1H-imidazol-2-yl)piperidin-1-yl)-2-(methylthio)propan-1-one]: the EC50 is < 50 nM.
